The target of test [1] is ANT4' (aminoglycoside nucleotidyl transferase 4') (Staphylococcus aureus, UniProt P05057). In words: X-ray crystal structure. In kind it is binding. The following applies: binary complex, 0.1-0.2 M MgCl2, pH 7-8; active site.
For test [2], the target named is ANT4' (aminoglycoside nucleotidyl transferase 4') (Staphylococcus aureus, UniProt P05057, T130K). The test is described as follows: biochemical.
Test [3] concerns the target ANT4' (aminoglycoside nucleotidyl transferase 4') (Staphylococcus aureus, UniProt P05057, E52D/T130K). The test is described as follows: biochemical.

Structures are written as SMILES.

As for `NC[C@@H]1O[C@H](O[C@H]2[C@@H](O)[C@H](O[C@@H]3[C@@H](O)[C@H](N)C[C@H](N)[C@H]3O[C@H]3O[C@H](CN)[C@@H](O)[C@H](O)[C@H]3N)O[C@@H]2CO)[C@H](N)[C@@H](O)[C@@H]1O` [neomycin], the X-ray crystal structure result in test [1] is on record as “A binary neomycin complex was also determined in the wild-type ANT4’ enzyme”. Also, the Kd worked out at 340 ± 30 nM in test [2] and 870 ± 80 nM in test [3].

As a reminder, the Kd is a measure of binding affinity in units of concentration. The low end stands for tighter binding, the high end for weaker binding.

The record behind these values is article PMC10797667 (ACS catalysis, 2020).
